# Laboratory results published in US7820078B2, “Layer configuration with improved stability to sunlight exposure” (Agfa Graphics, N.V., priority 2007, dated 2010).
# Conditions: not given
row,melting point [°C],SMILES
1,101 to 103,Oc1ccc2ccccc2c1O

# Conditions: cited from earlier work
row,SMILES,pKa
1,CC(C)N [isopropylamine],10.63
2,Cc1nc2ccccc2[nH]1 [2-methylbenzimidazole],6.96
3,c1ccc2cnccc2c1 [isoquinoline],5.2
4,Sc1nnnn1-c1ccccc1 [1-phenyl-5-mercaptotetrazole],2.30
5,c1cn[nH]c1 [pyrazole],2.53
